Assay results taken from US20240360411A1, “METHODS AND COMPOSITIONS FOR INDUCING FETAL HEMOGLOBIN, MODULATING ERYTHROID CELL LINEAGES, AND PERTURBING MEGAKARYOCYTE LINEAGES” (FLAGSHIP PIONEERING INNOVATIONS VI, LLC, priority 2021, published 2024).

What was measured:
sickle cell patient = sickle cell patient treated with hydroxyurea; Mundee et al.; cited from earlier work
C57Bl/6J mice = test: Carboplatin induced thrombocytopenia model (CIT), CBC and bone marrow flow cytometry; assay type: in vivo, mouse
Text: Chemotherapy induced thrombocytopenia (CIT) was a major disease burden in cancer patients undergoing chemotherapy. CIT increases the risk of bleeding resulting in delay of chemotherapy and/or reduction in relative dose intensity (RDI), which has a major impact in overall outcomes to cancer treatment. Currently, there were no approved treatments besides platelet transfusions in severe CIT cases. Thrombopoietin (TPO) mimetics, such romiplostim, were being investigated as a possible new treatment to address CIT. Based on the ability to modulate megakaryocyte progenitors in vitro and healthy animals, murine models that replicate CIT were developed (Table 19.) To this end, the following chemotherapeutic compounds known to induced myelosuppression and thrombocytopenia in mouse and humans were selected to develop CIT models:
Carboplatin a cisplatin analog commonly used in the clinic to treat a diverse type of malignant tumors. Carboplatin works by cross-linking to DNA resulting in DNA damage and decreased tumor burden. In addition, carboplatin also leads to bone marrow myelosuppression including transient thrombocytopenia in both human and mice.
Healthy C57Bl/6J mice were treated with a single dose of carboplatin via intraperitoneal injection (60 or 100 mg/kg) (FIG. 16A). Complete blood count (CBC), specifically changes in platelet number were measured using a blood analyzer (Heska HT5) at baseline Day 0 (baseline), Day 9, Day 16 and Day 21. In addition, bone marrowwas harvested at 24 hrs, 48 hrs, 9 days and 21 days post-carboplatin injection to characterize changes in the hematopoietic stem cells compartment, and changes in megakaryocyte compartment. […] Analysis of the bone marrow hematopoietic compartments was performed using flow cytometry as described in Example 14.

[1] = single intraperitoneal dose, 60 or 100 mg/kg, day post-injection

NC(=O)NO [hydroxyurea]
mean % F+ cells (sickle cell patient): 54.1%±8.5% | mean % HbF (sickle cell patient): 15.8%±2.0%

N.N.O=C([O-])C1(C(=O)[O-])CCC1.[Pt+2] [carboplatin]
bone marrow hematopoietic compartments (early Mkps, mature megakaryocytes) (C57Bl/6J mice; flow cytometry 24 hrs, 48 hrs, 9 days, 21 days post-carboplatin injection, FIG. 17A, 17B): dynamic loss and recovery of distinct populations | tolerability (C57Bl/6J mice; single intraperitoneal dose, 60 or 100 mg/kg): tolerated the treatment | blood platelets (change in platelet number) (C57Bl/6J mice; single intraperitoneal dose, 60 or 100 mg/kg, FIG. 16B): decrease of blood platelets in a dose dependent manner | full recovery of platelet number (C57Bl/6J mice; [1]): ≤ 21 days | nadir of blood platelets (C57Bl/6J mice; [1]): 9 days
